Data published in patent US9469631B2 (Boehringer Ingelheim International GmbH, priority 2012, dated 2016).

Legend:
[1] = target: mutant form of the human GPR119 receptor (Homo sapiens (Human), UniProt Q8TDV5, S329A/T327A); assay: LANCE cAMP-384 assay in HEK293 cells stably expressing a mutant form of human GPR119; type: cell-based; conditions: 20 min at 37° C.
human GPR119 = human GPR119 (Homo sapiens (Human), UniProt Q8TDV5); assay: AlphaScreen cAMP assay in MIN6 cells stably transfected with human GPR119; type: cell-based; conditions: Min-6/hGPR119 cells, 45 min incubation at room temperature
Summary of the method: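 MIN6 cells stably expressing human GPR119 were seeded at 10000 cells/well for 24 h. Compounds were then applied in pH 7.4 buffer with 0.5 mM IBMX, 0.1% BSA and 1% DMSO for 45 min at about 20 °C. Intracellular cAMP was measured by AlphaScreen.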

Chain of mutant form of the human GPR119 receptor (Q8TDV5 other isoform, or with tags, fused parts or gaps T327A/S329A): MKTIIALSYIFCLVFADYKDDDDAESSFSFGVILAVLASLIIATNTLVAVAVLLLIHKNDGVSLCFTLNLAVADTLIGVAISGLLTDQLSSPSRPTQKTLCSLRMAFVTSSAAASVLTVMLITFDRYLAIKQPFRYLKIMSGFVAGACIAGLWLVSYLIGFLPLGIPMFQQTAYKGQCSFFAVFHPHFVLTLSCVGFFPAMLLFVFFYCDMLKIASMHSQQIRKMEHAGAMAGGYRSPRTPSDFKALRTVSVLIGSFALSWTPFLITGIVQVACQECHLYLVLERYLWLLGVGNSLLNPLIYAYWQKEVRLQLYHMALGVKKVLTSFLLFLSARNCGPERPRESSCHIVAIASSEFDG
Chain of human GPR119 (Q8TDV5 whole entry): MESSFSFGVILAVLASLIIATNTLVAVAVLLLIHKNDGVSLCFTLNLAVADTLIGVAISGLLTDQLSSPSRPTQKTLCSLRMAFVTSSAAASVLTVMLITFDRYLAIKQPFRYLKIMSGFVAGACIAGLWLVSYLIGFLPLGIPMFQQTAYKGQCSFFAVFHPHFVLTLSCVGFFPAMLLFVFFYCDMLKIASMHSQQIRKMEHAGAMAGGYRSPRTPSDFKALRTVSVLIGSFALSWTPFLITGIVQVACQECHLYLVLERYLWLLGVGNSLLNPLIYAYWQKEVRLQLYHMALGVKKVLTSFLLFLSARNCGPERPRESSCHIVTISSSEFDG

Row | SMILES | EC50 [1] [nM] | EC50 (human GPR119) [nM]
1 | Cc1nccn1-c1ccc(C(=O)N(C2CC2)C2CCN(C(=O)OC(C)C)CC2)cc1 [Example 51, 4-{Cyclopropyl-[4-(2-methyl-imidazol-1-yl)-benzoyl]-amino}-piperidine-1-carboxylic acid isopropyl ester] | 1580 | –
2 | CC(C)OC(=O)N1CCC(N(C(=O)c2ccc(-n3cncn3)c(F)c2)C2CC2)CC1 [Example 49, 4-[Cyclopropyl-(3-fluoro-4-[1,2,4]triazol-1-yl-benzoyl)-amino]-piperidine-1-carboxylic acid isopropyl ester] | 338 | –
3 | CC(C)OC(=O)N1CC[C@H](N(C(=O)c2ccc(-n3cncn3)c(F)c2)C2CC2)[C@H](F)C1 (single isomer, unassigned) [Example 48] | 42 | –
4 | CC(C)OC(=O)N1CC[C@@H](N(C(=O)c2ccc(-n3cncn3)c(F)c2)C2CC2)[C@@H](F)C1 (single isomer, unassigned) [Example 50] | 1020 | –
5 | C[C@H]1CN(C(=O)OC(C)(C)C)CC[C@H]1N(C(=O)c1ccc(-c2cnco2)cc1)C1CC1 (single isomer, unassigned) [Example 47] | – | 855
6 | CCOC(=O)c1c(C)nn(-c2ccc(C(=O)N(C3CC3)C3CCN(C(=O)OC(C)(C)C)CC3)cc2)c1C [Example 79, 4-{Cyclopropyl-[4-(4-ethoxycarbonyl-3,5-dimethyl-pyrazol-1-yl)-benzoyl]-amino}-piperidine-1-carboxylic acid tert-butyl ester] | – | 1010
7 | COc1ccc(OC(=O)N2CCC(N(C(=O)c3ccc(-c4cnco4)cc3)C3CC3)CC2)cc1 [Example 120, 4-[Cyclopropyl-(4-oxazol-5-yl-benzoyl)-amino]-piperidine-1-carboxylic acid 4-methoxy-phenyl ester] | – | 71
8 | COC(=O)c1ccc(-c2ccc(C(=O)N(C3CC3)C3CCN(C(=O)OC(C)(C)C)CC3)cc2)cn1 [Example 107, 5-{4-[(1-tert-Butoxycarbonyl-piperidin-4-yl)-cyclopropyl-carbamoyl]-phenyl}-pyridine-2-carboxylic acid methyl ester] | – | 66
9 | CC(C)(C)OC(=O)N1CCC(N(C(=O)c2ccc(-c3nnco3)cc2)C2CC2)CC1 [Example 62, 4-[Cyclopropyl-(4-[1,3,4]oxadiazol-2-yl-benzoyl)-amino]-piperidine-1-carboxylic acid tert-butyl ester] | – | 650
10 | CC(C)(C)NS(=O)(=O)c1ccccc1-c1ccc(C(=O)N(C2CC2)C2CCN(C(=O)OC(C)(C)C)CC2)cc1 [Example 97, 4-[(2′-tert-Butylsulfamoyl-biphenyl-4-carbonyl)-cyclopropyl-amino]-piperidine-1-carboxylic acid tert-butyl ester] | – | 161
11 | CC1(OC(=O)N2CCC(N(C(=O)c3ccc(-c4cnco4)cc3)C3CC3)CC2)CC1 [Example 20, 4-[Cyclopropyl-(4-oxazol-5-yl-benzoyl)-amino]-piperidine-1-carboxylic acid 1-methyl-cyclopropyl ester] | – | 52
12 | Cc1noc(C)c1-c1ccc(C(=O)N(C2CC2)C2CCN(C(=O)OC(C)(C)C)CC2)cc1 [Example 95, 4-{Cyclopropyl-[4-(3,5-dimethyl-isoxazol-4-yl)-benzoyl]-amino}-piperidine-1-carboxylic acid tert-butyl ester] | – | 85
13 | CN(C)C(=O)Nc1nc(-c2ccc(C(=O)N(C3CC3)C3CCN(C(=O)OC(C)(C)C)CC3)cc2)ns1 [Example 72, 4-(Cyclopropyl-{4-[5-(3,3-dimethyl-ureido)-[1,2,4]thiadiazol-3-yl]-benzoyl}-amino)-piperidine-1-carboxylic acid tert-butyl ester] | – | 1170
14 | CC(C)(C)OC(=O)N1CCC(N(C(=O)c2ccc(-c3ccc(S(C)(=O)=O)cc3)cc2)C2CC2)CC1 [Example 93, 4-[Cyclopropyl-(4′-methanesulfonyl-biphenyl-4-carbonyl)-amino]-piperidine-1-carboxylic acid tert-butyl ester] | – | 177
15 | Cc1cc(C(=O)N(C2CC2)C2CCN(C(=O)OC(C)(C)C)CC2)ccc1-c1cnco1 [Example 24, 4-[Cyclopropyl-(3-methyl-4-oxazol-5-yl-benzoyl)-amino]-piperidine-1-carboxylic acid tert-butyl ester] | – | 81
16 | CC(C)(C)OC(=O)N1CC[C@@H](N(C(=O)c2ccc(-c3cnco3)cc2)C2CC2)[C@H](F)C1 (single isomer, unassigned) [Example 39] | – | 634
17 | CNC(=O)Nc1nnc(-c2ccc(C(=O)N(C3CC3)C3CCN(C(=O)OC(C)(C)C)CC3)cc2)s1 [Example 82, 4-(Cyclopropyl-{4-[5-(3-methyl-ureido)-[1,3,4]thiadiazol-2-yl]-benzoyl}-amino)-piperidine-1-carboxylic acid tert-butyl ester] | – | 402

Row | SMILES | EC50 [1] [nM] | EC50 (human GPR119) [nM]
18 | C[C@@H]1CN(C(=O)OC(C)(C)C)CC[C@@H]1N(C(=O)c1ccc(-c2cnco2)cc1)C1CC1 (single isomer, unassigned) [Example 46] | – | 7
19 | CC(=O)NCc1ccc(-c2ccc(C(=O)N(C3CC3)C3CCN(C(=O)OC(C)(C)C)CC3)cc2)cc1 [Example 104, 4-{[4′-(Acetylamino-methyl)-biphenyl-4-carbonyl]-cyclopropyl-amino}-piperidine-1-carboxylic acid tert-butyl ester] | – | 333
20 | CC(C)(C)OC(=O)N1CCC(N(C(=O)c2ccc(-c3ccoc3)cc2)C2CC2)CC1 [Example 90, 4-[Cyclopropyl-(4-furan-3-yl-benzoyl)-amino]-piperidine-1-carboxylic acid tert-butyl ester] | – | 228
21 | O=C(Oc1ccc(F)cc1)N1CCC(N(C(=O)c2ccc(-c3cnco3)cc2)C2CC2)CC1 [Example 119, 4-[Cyclopropyl-(4-oxazol-5-yl-benzoyl)-amino]-piperidine-1-carboxylic acid 4-fluoro-phenyl ester] | – | 89
22 | CC(C)(C)OC(=O)N1CCC(N(C(=O)c2ccc(-c3ccc(S(N)(=O)=O)cc3)cc2)C2CC2)CC1 [Example 105, 4-[Cyclopropyl-(4′-sulfamoyl-biphenyl-4-carbonyl)-amino]-piperidine-1-carboxylic acid tert-butyl ester] | – | 115
23 | O=C(OC1CCOCC1)N1CCC(N(C(=O)c2ccc(-c3cnco3)cc2)C2CC2)CC1 [Example 11, 4-[Cyclopropyl-(4-oxazol-5-yl-benzoyl)-amino]-piperidine-1-carboxylic acid tetrahydro-pyran-4-yl ester] | – | 516
24 | CC(C)(C)OC(=O)N1CCC(N(C(=O)c2cc(F)c(-c3cnco3)c(F)c2)C2CC2)CC1 [Example 33, 4-[Cyclopropyl-(3,5-difluoro-4-oxazol-5-yl-benzoyl)-amino]-piperidine-1-carboxylic acid tert-butyl ester] | – | 9
25 | CC(C)(C)OC(=O)N1CCC(N(C(=O)c2ccc(-c3ccno3)cc2)C2CC2)CC1 [Example 57, 4-[Cyclopropyl-(4-isoxazol-5-yl-benzoyl)-amino]-piperidine-1-carboxylic acid tert-butyl ester] | – | 99
26 | CC(C)(C)OC(=O)N1CCC(N(C(=O)c2ccc(-c3ccco3)cc2)C2CC2)CC1 [Example 65, 4-[Cyclopropyl-(4-furan-2-yl-benzoyl)-amino]-piperidine-1-carboxylic acid tert-butyl ester] | – | 659
27 | CC(C)(C)OC(=O)N1CCC(N(C(=O)c2ccc(-c3noc(Cc4ccccc4)n3)cc2)C2CC2)CC1 [Example 68, 4-{[4-(5-Benzyl-[1,2,4]oxadiazol-3-yl)-benzoyl]-cyclopropyl-amino}-piperidine-1-carboxylic acid tert-butyl ester] | – | 192
28 | O=C(OCc1ccccc1)N1CCC(N(C(=O)c2ccc(-c3cnco3)cc2)C2CC2)CC1 [Example 126, 4-[Cyclopropyl-(4-oxazol-5-yl-benzoyl)-amino]-piperidine-1-carboxylic acid benzyl ester] | – | 128
29 | Cc1nnnn1-c1ccc(C(=O)N(C2CC2)C2CCN(C(=O)OC(C)(C)C)CC2)cc1 [Example 26, 4-{Cyclopropyl-[4-(5-methyl-tetrazol-1-yl)-benzoyl]-amino}-piperidine-1-carboxylic acid tert-butyl ester] | – | 224
30 | C=C(C)OC(=O)N1CCC(N(C(=O)c2ccc(-c3cnco3)cc2)C2CC2)CC1 [Example 3, 4-[Cyclopropyl-(4-oxazol-5-yl-benzoyl)-amino]-piperidine-1-carboxylic acid isopropenyl ester] | – | 124
31 | CC(C)(C)OC(=O)N1CCC(N(C(=O)c2ccc(-c3ccc(C(=O)O)nc3)cc2)C2CC2)CC1 [Example 115, 5-{4[(1-tert-Butoxycarbonyl-piperidin-4-yl)-cyclopropyl-carbamoyl]-phenyl}-pyridine-2-carboxylic acid] | – | 1090
32 | CC(C)(C)OC(=O)N1CCC(N(C(=O)c2ccc(-c3cnco3)c(F)c2)C2CC2)CC1 [Example 28, 4-[Cyclopropyl-(3-fluoro-4-oxazol-5-yl-benzoyl)-amino]-piperidine-1-carboxylic acid tert-butyl ester] | – | 8
33 | CC(C)(C)OC(=O)N1CCC(N(C(=O)c2c(F)cc(-c3cnco3)cc2F)C2CC2)CC1 [Example 36, 4-[Cyclopropyl-(2,6-difluoro-4-oxazol-5-yl-benzoyl)-amino]-piperidine-1-carboxylic acid tert-butyl ester] | – | 219
